# From ChEMBL document CHEMBL5620359, “Discovery of 2,5-disubstituted furan derivatives featuring a benzamide motif for overcoming P-glycoprotein mediated multidrug resistance in MCF-7/ADR cell” (Eur J Med Chem, 2023)
# Activity calls are given as the source filed them. No cut-off for these calls is given here.
# How the values were obtained:
# NCI/ADR-RES [1] = assay: Reversal activity against doxorubicin-mediated resistance in human MCF7ADR cells assessed as reversal fold by measuring ratio of doxorubicin IC50 to doxorubicin IC50 in presence of test compound at 1 uM incubated for 48 hrs by CCK8 assay; assay type: functional
# NCI/ADR-RES [2] = assay: Cytotoxicity against human MCF7ADR cells assessed as cell survival rate at 1 uM incubated for 48 hrs by CCK8 assay relative to control; assay type: functional
# NCI/ADR-RES [3] = assay: Cytotoxicity against human MCF7ADR cells assessed as cell survival rate at 5 uM incubated for 48 hrs by CCK8 assay relative to control; assay type: functional
# NCI/ADR-RES [4] = assay: Reversal activity against doxorubicin-mediated resistance in human MCF7ADR cells assessed as reversal fold by measuring ratio of doxorubicin IC50 to doxorubicin IC50 in presence of test compound at 0.1 uM incubated for 48 hrs by CCK8 assay; assay type: functional
# NCI/ADR-RES [5] = assay: Reversal activity against doxorubicin-mediated resistance in human MCF7ADR cells assessed as reversal fold by measuring ratio of doxorubicin IC50 to doxorubicin IC50 in presence of test compound at 5 uM incubated for 48 hrs by CCK8 assay; assay type: functional
# [6] = target: T1, ATP-dependent translocase ABCB1 (Homo sapiens, UniProt P08183); assay: Inhibition of P-gp in human MCF7ADR cells assessed as increase in Rh123 accumulation at 0.1 to 10 uM incubated for 4 hrs by fluorescence microscopy; assay type: cell-based; conditions: dose 0.1-10 µM
# T1 sequence (P08183 whole entry): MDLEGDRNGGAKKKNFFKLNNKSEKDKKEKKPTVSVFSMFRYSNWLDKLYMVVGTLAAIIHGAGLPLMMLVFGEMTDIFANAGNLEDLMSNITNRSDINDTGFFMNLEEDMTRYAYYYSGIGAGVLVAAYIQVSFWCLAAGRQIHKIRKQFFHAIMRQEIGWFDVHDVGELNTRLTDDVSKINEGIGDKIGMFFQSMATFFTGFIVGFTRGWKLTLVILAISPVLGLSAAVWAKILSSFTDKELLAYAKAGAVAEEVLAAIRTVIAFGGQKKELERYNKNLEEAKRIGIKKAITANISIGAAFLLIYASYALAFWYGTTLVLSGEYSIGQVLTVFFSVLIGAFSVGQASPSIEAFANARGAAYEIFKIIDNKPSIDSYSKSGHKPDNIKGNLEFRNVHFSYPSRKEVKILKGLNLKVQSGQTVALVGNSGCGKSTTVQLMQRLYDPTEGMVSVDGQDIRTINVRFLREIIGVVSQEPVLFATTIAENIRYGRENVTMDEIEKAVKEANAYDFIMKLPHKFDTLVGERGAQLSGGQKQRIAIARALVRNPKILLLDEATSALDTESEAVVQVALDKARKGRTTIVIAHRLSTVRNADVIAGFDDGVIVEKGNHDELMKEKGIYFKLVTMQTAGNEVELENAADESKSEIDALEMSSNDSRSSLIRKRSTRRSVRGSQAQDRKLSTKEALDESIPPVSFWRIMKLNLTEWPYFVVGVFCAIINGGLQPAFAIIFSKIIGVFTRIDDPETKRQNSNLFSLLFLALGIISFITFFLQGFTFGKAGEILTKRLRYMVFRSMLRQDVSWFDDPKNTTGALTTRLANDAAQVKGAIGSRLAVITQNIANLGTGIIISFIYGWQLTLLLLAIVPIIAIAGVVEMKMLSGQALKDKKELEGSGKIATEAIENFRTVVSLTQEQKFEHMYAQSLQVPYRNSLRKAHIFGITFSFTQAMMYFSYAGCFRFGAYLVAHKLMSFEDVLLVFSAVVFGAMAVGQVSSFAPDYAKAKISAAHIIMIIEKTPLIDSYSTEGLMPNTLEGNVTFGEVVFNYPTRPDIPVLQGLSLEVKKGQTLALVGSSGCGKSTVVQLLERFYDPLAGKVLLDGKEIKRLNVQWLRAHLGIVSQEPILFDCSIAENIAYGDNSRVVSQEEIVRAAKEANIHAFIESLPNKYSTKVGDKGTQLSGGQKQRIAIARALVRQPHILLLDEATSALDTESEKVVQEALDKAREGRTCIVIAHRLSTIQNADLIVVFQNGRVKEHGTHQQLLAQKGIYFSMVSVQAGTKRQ
# NCI/ADR-RES [7] = assay: Antitumor activity against human MCF7ADR cells xenografted in nude BALB/c mouse assessed as tumor volume reduction at 10 mg/kg, ip for 14 days administered every 2 days; assay type: functional, organism-based; conditions: time 14.0 day
# [8] = Toxicity in nude BALB/c mouse xenografted with human MCF7ADR cells assessed as morphological change in kidney at 10 mg/kg, ip for 14 days administered every 2 days by H and E staining based analysis; assay type: organism-based; conditions: in vivo, 336 h, time 14 day
# MCF7 [9] = assay: Cytotoxicity against human MCF7 cells assessed as cell survival rate at 5 uM incubated for 48 hrs by CCK8 assay relative to control; assay type: functional
# NCI/ADR-RES [10] = assay: Antitumor activity against human MCF7ADR cells xenografted in nude BALB/c mouse assessed as tumor size reduction at 10 mg/kg, ip for 14 days administered every 2 days; assay type: functional, organism-based; conditions: time 14.0 day
# NCI/ADR-RES [11] = assay: Reversal activity against doxorubicin-mediated resistance in human MCF7ADR cells assessed as reversal fold by measuring ratio of doxorubicin IC50 to doxorubicin IC50 in presence of test compound at 0.5 uM incubated for 48 hrs by CCK8 assay; assay type: functional
# [12] = Toxicity in nude BALB/c mouse xenografted with human MCF7ADR cells assessed as morphological change in lung at 10 mg/kg, ip for 14 days administered every 2 days by H and E staining based analysis; assay type: organism-based; conditions: in vivo, 336 h, time 14 day
# [13] = Toxicity in nude BALB/c mouse xenografted with human MCF7ADR cells assessed as body weight loss at 10 mg/kg, ip for 14 days administered every 2 days in presence of doxorubicin; assay type: organism-based; conditions: in vivo, 336 h, time 14 day
# NCI/ADR-RES [14] = assay: Reversal activity against doxorubicin-mediated resistance in human MCF7ADR cells xenografted in nude BALB/c mouse at 10 mg/kg, ip for 14 days administered every 2 days; assay type: functional, organism-based; conditions: time 14.0 day
# NCI/ADR-RES [15] = assay: Reversal activity against doxorubicin-mediated resistance in 3D spheroid model of human MCF7ADR cells assessed as reduction in tumor spheroid volume at 5 uM incubated for 9 days by inverted microscopy; assay type: functional, cell-based; conditions: time 9.0 day
# [16] = Toxicity in nude BALB/c mouse xenografted with human MCF7ADR cells assessed as morphological change in heart at 10 mg/kg, ip for 14 days administered every 2 days by H and E staining based analysis; assay type: organism-based; conditions: in vivo, 336 h, time 14 day
# NCI/ADR-RES [17] = assay: Reversal activity against daunorubicin-mediated resistance in human MCF7ADR cells assessed as reversal fold by measuring ratio of daunorubicin IC50 to daunorubicin IC50 in presence of test compound at 5 uM incubated for 48 hrs by CCK8 assay; assay type: functional
# NCI/ADR-RES [18] = assay: Downregulation of P-gp expression in human MCF7ADR cells at 0.1 to 10 uM incubated for 48 hrs by Western blot analysis; assay type: functional, cell-based; conditions: dose 0.1-10 µM
# NCI/ADR-RES [19] = assay: Reversal activity against vincristine-mediated resistance in human MCF7ADR cells assessed as reversal fold by measuring ratio of vincristine IC50 to vincristine IC50 in presence of test compound at 5 uM incubated for 48 hrs by CCK8 assay; assay type: functional
# [20] = Toxicity in nude BALB/c mouse xenografted with human MCF7ADR cells assessed as morphological change in liver at 10 mg/kg, ip for 14 days administered every 2 days by H and E staining based analysis; assay type: organism-based; conditions: in vivo, 336 h, time 14 day
# NCI/ADR-RES [21] = assay: Antitumor activity against human MCF7ADR cells xenografted in nude BALB/c mouse assessed as tumor weight reduction at 10 mg/kg, ip for 14 days administered every 2 days; assay type: functional, organism-based; conditions: time 14.0 day
# [22] = Toxicity in nude BALB/c mouse xenografted with human MCF7ADR cells assessed as body weight loss at 10 mg/kg, ip for 14 days administered every 2 days; assay type: organism-based; conditions: in vivo, 336 h, time 14 day
# [23] = Toxicity in nude BALB/c mouse xenografted with human MCF7ADR cells assessed as morphological change in spleen at 10 mg/kg, ip for 14 days administered every 2 days by H and E staining based analysis; assay type: organism-based; conditions: in vivo, 336 h, time 14 day
# [24] = target: T1, ATP-dependent translocase ABCB1; assay: Inhibition of P-gp in human MCF7ADR cells assessed as increase in Rh123 accumulation at 0.1 to 10 uM incubated for 4 hrs by flow cytometry; assay type: cell-based; conditions: dose 0.1-10 µM
# NCI/ADR-RES [25] = assay: Reversal activity against paclitaxel-mediated resistance in human MCF7ADR cells assessed as reversal fold by measuring ratio of paclitaxel IC50 to paclitaxel IC50 in presence of test compound at 5 uM incubated for 48 hrs by CCK8 assay; assay type: functional
# [26] = Toxicity in nude BALB/c mouse xenografted with human MCF7ADR cells assessed as reduction in liver volume at 3 mg/kg, ip for 14 days administered every 2 days by H and E staining based analysis; assay type: organism-based; conditions: in vivo, 336 h, time 14 day
# [27] = Toxicity in nude BALB/c mouse xenografted with human MCF7ADR cells assessed as reduction in spleen volume at 3 mg/kg, ip for 14 days administered every 2 days by H and E staining based analysis; assay type: organism-based; conditions: in vivo, 336 h, time 14 day
# [28] = Toxicity in nude BALB/c mouse xenografted with human MCF7ADR cells assessed as increase in nuclear density in liver at 3 mg/kg, ip for 14 days administered every 2 days by H and E staining based analysis; assay type: organism-based; conditions: in vivo, 336 h, time 14 day
# [29] = Toxicity in nude BALB/c mouse xenografted with human MCF7ADR cells assessed as pathological change in spleen at 3 mg/kg, ip for 14 days administered every 2 days by H and E staining based analysis; assay type: organism-based; conditions: in vivo, 336 h, time 14 day
# [30] = Toxicity in nude BALB/c mouse xenografted with human MCF7ADR cells assessed as body weight loss at 3 mg/kg, ip for 14 days administered every 2 days; assay type: organism-based; conditions: in vivo, 336 h, time 14 day
# [31] = Toxicity in nude BALB/c mouse xenografted with human MCF7ADR cells assessed as hyperplasia in spleen at 3 mg/kg, ip for 14 days administered every 2 days by H and E staining based analysis; assay type: organism-based; conditions: in vivo, 336 h, time 14 day
# [32] = Toxicity in nude BALB/c mouse xenografted with human MCF7ADR cells assessed as increase in nuclear density in kidney at 3 mg/kg, ip for 14 days administered every 2 days by H and E staining based analysis; assay type: organism-based; conditions: in vivo, 336 h, time 14 day
# MCF7 [33] = assay: Antitumor activity against human MCF7 cells incubated for 48 hrs by CCK8 assay; assay type: functional, cell-based; conditions: MCF7, 48 h
structure (smiles),measurement,setting,value
COc1cc2c(cc1OC)CN(C(=O)c1ccc(-c3ccc(NC(=O)c4cccnc4)cc3)o1)CC2,fold change (FC),NCI/ADR-RES [1],2.2
same,Activity,NCI/ADR-RES [2],72.4%
same,Activity,NCI/ADR-RES [3],14.7%
COc1ccc(C(=O)Nc2ccc(-c3ccc(C(=O)N4CCc5cc(OC)c(OC)cc5C4)o3)cc2)cc1,fold change (FC),NCI/ADR-RES [1],110.5
same,fold change (FC),NCI/ADR-RES [4],3.3
same,fold change (FC),NCI/ADR-RES [5],565
same,inhibition (INH),[6],Dose-Dependent Effect
same,Activity,NCI/ADR-RES [7],inactive
same,Activity,[8],Non-Toxic
same,Activity,MCF7 [9],80.4%
same,Activity,NCI/ADR-RES [3],80.1%
same,Activity,NCI/ADR-RES [10],inactive
same,fold change (FC),NCI/ADR-RES [11],8.8
same,Activity,[12],Non-Toxic
same,Activity,[13],Toxic
same,Activity,NCI/ADR-RES [14],Active
same,Activity,NCI/ADR-RES [15],Active
same,Activity,[16],Non-Toxic
same,fold change (FC),NCI/ADR-RES [17],143.4
same,Activity,NCI/ADR-RES [18],inactive
same,fold change (FC),NCI/ADR-RES [19],18.9
same,Activity,[20],Non-Toxic
same,Activity,NCI/ADR-RES [21],inactive
same,Activity,[22],Non-Toxic
same,Activity,[23],Non-Toxic
same,inhibition (INH),[24],Dose-Dependent Effect
same,fold change (FC),NCI/ADR-RES [25],158.6
COc1cc2c(cc1OC)CN(C(=O)c1ccc(-c3ccc(NC(=O)c4cccs4)cc3)o1)CC2,Activity,NCI/ADR-RES [2],92.3%
same,Activity,NCI/ADR-RES [3],26%
COc1cccc2c1C(=O)c1c(O)c3c(c(O)c1C2=O)C[C@@](O)(C(=O)CO)C[C@@H]3O[C@H]1C[C@H](N)[C@H](O)[C@H](C)O1 [DOXORUBICIN],Activity,[26],Toxic
same,Activity,[27],Toxic
same,Activity,[28],Toxic
same,Activity,[29],Toxic
same,Activity,[30],Toxic
same,Activity,[31],Toxic
same,Activity,[32],Toxic
CC(=O)O[C@H]1C(=O)[C@@]2(C)[C@H]([C@H](OC(=O)c3ccccc3)[C@]3(O)C[C@H](OC(=O)[C@H](O)[C@@H](NC(=O)c4ccccc4)c4ccccc4)C(C)=C1C3(C)C)[C@]1(OC(C)=O)CO[C@@H]1C[C@@H]2O [PACLITAXEL],IC50,MCF7 [33],0.55 µM
COc1cc2c(cc1OC)CN(C(=O)c1ccc(-c3ccc(NC(=O)c4ccco4)cc3)o1)CC2,Activity,NCI/ADR-RES [2],80.6%
same,Activity,NCI/ADR-RES [3],11.3%
CC[C@]1(O)C[C@H]2CN(CCc3c([nH]c4ccccc34)[C@@](C(=O)OC)(c3cc4c(cc3OC)N(C=O)[C@H]3[C@@](O)(C(=O)OC)[C@H](OC(C)=O)[C@]5(CC)C=CCN6CC[C@]43[C@@H]65)C2)C1 [VINCRISTINE],IC50,MCF7 [33],0.9 µM
COc1cccc2c1C(=O)c1c(O)c3c(c(O)c1C2=O)C[C@@](O)(C(C)=O)C[C@@H]3O[C@H]1C[C@H](N)[C@H](O)[C@H](C)O1 [DAUNORUBICIN],IC50,MCF7 [33],0.98 µM
